Data on 17 compounds can be found in patent US12310975B2, “Modulators of BCL6 proteolysis and associated methods of use” (Arvinas Operations, Inc., priority 2019, dated 2025).

In the assay the target is BCL6 (Homo sapiens (Human), UniProt P41182). The assay is described as follows: Immunofluorescence high content imaging of BCL6 degradation in T47D cells. It is filed as cell-based. The conditions noted are these: T47D cells. Summed up: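 Read-out is BCL6 immunofluorescence quantified by high-content imaging (10×, 4 fields per well) of T47D breast cancer cells. Cells were exposed for 3 days to degrader in an 11-point, 3-fold serial dilution reaching a final top concentration of 0.1 or 1 μM.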
Compound `CNC(=O)COc1cc2cc(Nc3nc(N4C[C@@H](C)N(CC5CCN(c6ccc(C(=O)NC7CCC(=O)NC7=O)c(OC)c6)CC5)[C@@H](C)C4)ncc3Cl)ccc2n(C)c1=O` (stereo partly drawn) [compound 346, 4-(4-{[(2R,6S)-4-[5-chloro-4-({1-methyl-3-[(methylcarbamoyl)methoxy]-2-oxo-1,2-dihydroquinolin-6-yl}amino)pyrimidin-2-yl]-2,6-dimethylpiperazin-1-yl]methyl}piperidin-1-yl)-N-(2,6-dioxopiperidin-3-yl)-2-methoxybenzamide] displayed a maximal degradation (Dmax) of 50 to 70% and a concentration for half-maximal inhibition (IC50) of less than 10 nM.
In turn, `CNC(=O)COc1cc2cc(Nc3nc(N4CCC(CN5[C@H](C)CN(c6ccc(C(=O)NC7CCC(=O)NC7=O)c(OC)c6)C[C@@H]5C)CC4)ncc3Cl)ccc2n(C)c1=O` (stereo partly drawn) [compound 347, 4-[(3R,5S)-4-({1-[5-chloro-4-({1-methyl-3-[(methylcarbamoyl)methoxy]-2-oxo-1,2-dihydroquinolin-6-yl}amino)pyrimidin-2-yl]piperidin-4-yl}methyl)-3,5-dimethylpiperazin-1-yl]-N-(2,6-dioxopiperidin-3-yl)-2-methoxybenzamide] had a maximal degradation (Dmax) of 50 to 70% and an IC50 of less than 10 nM.
For the compound `CNC(=O)COc1cc2cc(Nc3nc(N4CCO[C@H](COc5ccc(C(=O)NC6CCC(=O)NC6=O)cc5)C4)ncc3Cl)ccc2n(C(C)C)c1=O` (stereo partly drawn) [compound 348, 4-{[(2S)-4-[5-chloro-4-({3-[(methylcarbamoyl)methoxy]-2-oxo-1-(propan-2-yl)-1,2-dihydroquinolin-6-yl}amino)pyrimidin-2-yl]morpholin-2-yl]methoxy}-N-(2,6-dioxopiperidin-3-yl)benzamide], the Dmax is less than 50% and the half-inhibitory concentration (IC50) lay within 10 to 50 nM.
For `CNC(=O)COc1cc2cc(Nc3nc(N4CCO[C@H](COc5ccc(C(=O)NC6CCC(=O)NC6=O)nc5)C4)ncc3Cl)ccc2n(C(C)C)c1=O` (stereo partly drawn) [compound 349, 5-{[(2S)-4-[5-chloro-4-({3-[(methylcarbamoyl)methoxy]-2-oxo-1-(propan-2-yl)-1,2-dihydroquinolin-6-yl}amino)pyrimidin-2-yl]morpholin-2-yl]methoxy}-N-(2,6-dioxopiperidin-3-yl)pyridine-2-carboxamide], in that order: less than 50% and no less than 100 nM.
On to `CNC(=O)COc1cc2cc(Nc3nc(N4CCO[C@H](COc5ccc(C(=O)NC6CCC(=O)NC6=O)c(F)c5)C4)ncc3Cl)ccc2n(C(C)C)c1=O` (stereo partly drawn) [compound 350, 4-{[(2S)-4-[5-chloro-4-({3-[(methylcarbamoyl)methoxy]-2-oxo-1-(propan-2-yl)-1,2-dihydroquinolin-6-yl}amino)pyrimidin-2-yl]morpholin-2-yl]methoxy}-N-(2,6-dioxopiperidin-3-yl)-2-fluorobenzamide], for which the Dmax is less than 50% and the IC50 is less than 10 nM.
`CNC(=O)COc1cc2cc(Nc3nc(N4CCO[C@H](COc5ccc(C(=O)NC6CCC(=O)NC6=O)c(OC)c5)C4)ncc3Cl)ccc2n(C(C)C)c1=O` (stereo partly drawn) [compound 351, 4-{[(2S)-4-[5-chloro-4-({3-[(methylcarbamoyl)methoxy]-2-oxo-1-(propan-2-yl)-1,2-dihydroquinolin-6-yl}amino)pyrimidin-2-yl]morpholin-2-yl]methoxy}-N-(2,6-dioxopiperidin-3-yl)-2-methoxybenzamide] displayed a Dmax of less than 50% and an IC50 of 10 to 50 nM.
Turning to `CNC(=O)COc1cc2cc(Nc3nc(N4CCC(CCN5CCN(c6ccc7c(c6)C(=O)N(C6CCC(=O)NC6=O)C7=O)CC5)CC4)ncc3Cl)ccc2n(C)c1=O` (stereo not drawn) [compound 353, 2-{[6-({5-chloro-2-[4-(2-(4-[2-(2,6-dioxopiperidin-3-yl)-1,3-dioxo-2,3-dihydro-1H-isoindol-5-yl]piperazin-1-yl}ethyl)piperidin-1-yl]pyrimidin-4-yl}amino)-1-methyl-2-oxo-1,2-dihydroquinolin-3-yl]oxy}-N-methylacetamide], the maximal degradation (Dmax) lay within 50 to 70% and the IC50 was less than 10 nM.
With `CNC(=O)COc1cc2cc(Nc3nc(N4CCN(CC5CCN(c6cc(F)c(C(=O)NC7CCC(=O)NC7=O)c(OC)c6)CC5)CC4)ncc3Cl)ccc2n(C)c1=O` (stereo not drawn) [compound 354, 4-[4-({4-[5-chloro-4-({1-methyl-3-[(methylcarbamoyl)methoxy]-2-oxo-1,2-dihydroquinolin-6-yl}amino)pyrimidin-2-yl]piperazin-1-yl}methyl)piperidin-1-yl]-N-(2,6-dioxopiperidin-3-yl)-2-fluoro-6-methoxybenzamide], the maximal degradation (Dmax) was 50 to 70% and the 50% inhibitory concentration (IC50) is less than 10 nM.
On the same counts, the results for `CNC(=O)COc1cc2cc(Nc3nc(N4C[C@@H](C)N(CC5CCN(c6cccc(C(=O)NC7CCC(=O)NC7=O)c6F)CC5)[C@@H](C)C4)ncc3Cl)ccc2n(C)c1=O` (stereo partly drawn) [compound 355, 3-(4-{[(2R,6S)-4-[5-chloro-4-({1-methyl-3-[(methylcarbamoyl)methoxy]-2-oxo-1,2-dihydroquinolin-6-yl}amino)pyrimidin-2-yl]-2,6-dimethylpiperazin-1-yl]methyl}piperidin-1-yl)-N-(2,6-dioxopiperidin-3-yl)-2-fluorobenzamide] are 50 to 70% and 50 to 100 nM.
Regarding `CNC(=O)COc1cc2cc(Nc3nc(N4CCN(C(C)(C)C5CCN(c6cc(OC)cc(C(=O)NC7CCC(=O)NC7=O)c6F)CC5)CC4)ncc3Cl)ccc2n(C)c1=O` (stereo not drawn) [compound 356, 3-[4-(2-{4-[5-chloro-4-({1-methyl-3-[(methylcarbamoyl)methoxy]-2-oxo-1,2-dihydroquinolin-6-yl}amino)pyrimidin-2-yl]piperazin-1-yl}propan-2-yl)piperidin-1-yl]-N-(2,6-dioxopiperidin-3-yl)-2-fluoro-5-methoxybenzamide], the Dmax was no less than 70% and the IC50 is less than 10 nM.
For `CCn1c(=O)c(OCC(=O)NC)cc2cc(Nc3nc(N4CCN([C@@H]5C[C@@H](COc6ccc7c(c6)C(=O)N(C6CCC(=O)NC6=O)C7=O)N(C)C5)CC4)ncc3Cl)ccc21` (stereo partly drawn) [compound 357, 2-({6-[(5-chloro-2-{4-[(3R,5S)-5-({[2-(2,6-dioxopiperidin-3-yl)-1,3-dioxo-2,3-dihydro-1H-isoindol-5-yl]oxy}methyl)-1-methylpyrrolidin-3-yl]piperazin-1-yl}pyrimidin-4-yl)amino]-1-ethyl-2-oxo-1,2-dihydroquinolin-3-yl}oxy)-N-methylacetamide], in that order: less than 50% and 50 to 100 nM.
Take `CNC(=O)COc1cc2cc(Nc3nc(N4CCN(CC5CCN(c6ccc(C(=O)NC7CCC(=O)NC7=O)c(OC(C)C)c6)CC5)CC4)ncc3Cl)ccc2n(C)c1=O` (stereo not drawn) [compound 358, 4-[4-({4-[5-chloro-4-({1-methyl-3-[(methylcarbamoyl)methoxy]-2-oxo-1,2-dihydroquinolin-6-yl}amino)pyrimidin-2-yl]piperazin-1-yl}methyl)piperidin-1-yl]-N-(2,6-dioxopiperidin-3-yl)-2-(propan-2-yloxy)benzamide]: the IC50 was no less than 100 nM.
In turn, `CNC(=O)COc1cc2cc(Nc3nc(N4CCN(CC5CCN(c6cnc(C(=O)NC7CCC(=O)NC7=O)c(OC)c6)CC5)CC4)ncc3Cl)ccc2n(C)c1=O` (stereo not drawn) [compound 359, 5-[4-({4-[5-chloro-4-({1-methyl-3-[(methylcarbamoyl)methoxy]-2-oxo-1,2-dihydroquinolin-6-yl}amino)pyrimidin-2-yl]piperazin-1-yl}methyl)piperidin-1-yl]-N-(2,6-dioxopiperidin-3-yl)-3-methoxypyridine-2-carboxamide] returned a Dmax of 50 to 70% and an IC50 of 10 to 50 nM.
On the same counts, the results for `CNC(=O)COc1cc2cc(Nc3nc(N4CCC(CN5CCC(c6nc(C(=O)NC7CCC(=O)NC7=O)cs6)CC5)CC4)ncc3Cl)ccc2n(C)c1=O` (stereo not drawn) [compound 360, 2-[1-({1-[5-chloro-4-({1-methyl-3-[(methylcarbamoyl)methoxy]-2-oxo-1,2-dihydroquinolin-6-yl}amino)pyrimidin-2-yl]piperidin-4-yl}methyl)piperidin-4-yl]-N-(2,6-dioxopiperidin-3-yl)-1,3-thiazole-4-carboxamide] are 50 to 70% and 10 to 50 nM.
For `CNC(=O)COc1cc2cc(Nc3nc(N4CCC(CN5CCC(c6ccc(C(=O)NC7CCC(=O)NC7=O)o6)CC5)CC4)ncc3Cl)ccc2n(C)c1=O` (stereo not drawn) [compound 361, 5-[1-({1-[5-chloro-4-({1-methyl-3-[(methylcarbamoyl)methoxy]-2-oxo-1,2-dihydroquinolin-6-yl}amino)pyrimidin-2-yl]piperidin-4-yl}methyl)piperidin-4-yl]-N-(2,6-dioxopiperidin-3-yl)furan-2-carboxamide], in that order: less than 50% and 10 to 50 nM.
On the same counts, the results for `CNC(=O)COc1cc2cc(Nc3nc(N4CCC(OC5CC6(C5)CN(c5ccc7c(c5)C(=O)N(C5CCC(=O)NC5=O)C7=O)C6)CC4)ncc3Cl)ccc2n(C(C)C)c1=O` (stereo not drawn) [compound 362, 2-{[6-({5-chloro-2-[4-({2-[2-(2,6-dioxopiperidin-3-yl)-1,3-dioxo-2,3-dihydro-1H-isoindol-5-yl]-2-azaspiro[3.3]heptan-6-yl}oxy)piperidin-1-yl]pyrimidin-4-yl}amino)-2-oxo-1-(propan-2-yl)-1,2-dihydroquinolin-3-yl]oxy}-N-methylacetamide] are 50 to 70% and less than 10 nM.
For `CNC(=O)COc1cc2cc(Nc3nc(N4CCC(OC5CC6(C5)CN(c5cccc7c5C(=O)N(C5CCC(=O)NC5=O)C7=O)C6)CC4)ncc3Cl)ccc2n(C(C)C)c1=O` (stereo not drawn) [compound 363, 2-{[6-({5-chloro-2-[4-({2-[2-(2,6-dioxopiperidin-3-yl)-1,3-dioxo-2,3-dihydro-1H-isoindol-4-yl]-2-azaspiro[3.3]heptan-6-yl}oxy)piperidin-1-yl]pyrimidin-4-yl}amino)-2-oxo-1-(propan-2-yl)-1,2-dihydroquinolin-3-yl]oxy}-N-methylacetamide], the Dmax was no less than 70% and the IC50 was less than 10 nM.

As a reminder, the Dmax is the greatest extent of degradation seen. A high value points to deep degradation. The IC50 is the midpoint of a concentration-inhibition curve.
